Source: patent US9980943B2, “Methods of treating muscular dystrophy” (BOARD OF REGENTS OF THE NEVADA SYSTEM OF HIGHER EDUCATION, …, priority 2013, dated 2018)
Values joined by “and” are separate entries in the source; they are usually repeats but may differ in a detail not shown here. Equal entries are not always repeated.

What was measured:
Assay type in all cases: cell-based, mouse
[1] = tested on: α7 integrin (LacZ reporter in α7βgal+/− myoblasts); experiment: Myoblast α7+/LacZ integrin FDG assay (Burkin assay in myoblasts, 96-well); conditions: α7+/LacZ myoblasts, 96-well
[2] = tested on: α7 integrin (LacZ reporter in α7+/LacZ myotubes); experiment: Myotube α7 integrin FDG assay (Burkin assay in myotubes, 96-well); conditions: myotubes
[3] = tested on: β-galactosidase in CMV-LacZ C2C12 myoblasts; experiment: CMV-LacZ secondary screen in C2C12 myoblasts (β-Gal stabilizing assay); conditions: CMV-LacZ C2C12 myoblasts
In short: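 A secondary screen identifies compounds that stabilize β-gal independently of the native promoter, using CMV-LacZ C2C12 cells. Curves span 0.5–40 μM at six levels, in duplicate.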

[4] = tested on: β-galactosidase in CMV-LacZ C2C12 myotubes; experiment: CMV-LacZ secondary screen in C2C12 myotubes (β-Gal stabilizing assay); conditions: C2C12 CMV-LacZ myotubes, fold relative to DMSO
In short: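 β-gal stabilization was measured in C2C12 myoblasts or myotubes stably transfected with a CMV-driven LacZ construct, using the FDG β-gal assay. Compounds were tested in dose-response at 0.5, 1, 5, 10, 20 and 40 μM, with two replicates per point.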

CC(C(=O)Nc1ccc(C#N)cc1)N(C)CC(=O)Nc1cccc(F)c1 (stereo not drawn) [MLS001033255-01]
Burkin Assay in Myoblasts, signal relative to DMSO ([1]; 0.5 uM): 1.013
Burkin Assay in Myoblasts, value relative to DMSO ([1]; 0.5 uM): 0.9467
Burkin Assay in Myoblasts, signal relative to DMSO ([1]; 1 uM): 0.9373
Burkin Assay in Myoblasts, value relative to DMSO ([1]; 1 uM): 0.9407
Burkin Assay in Myoblasts, signal relative to DMSO ([1]; 5 uM): 1.017
Burkin Assay in Myoblasts, value relative to DMSO ([1]; 5 uM): 0.9509
Burkin Assay in Myoblasts, signal relative to DMSO ([1]; 10 uM): 1.124
Burkin Assay in Myoblasts, value relative to DMSO ([1]; 10 uM): 0.9542
Burkin Assay in Myoblasts, signal relative to DMSO ([1]; 20 uM): 0.985
Burkin Assay in Myoblasts, value relative to DMSO ([1]; 20 uM): 0.7962
Burkin Assay in Myoblasts, signal relative to DMSO ([1]; 40 uM): 0.8279
Burkin Assay in Myoblasts, value relative to DMSO ([1]; 40 uM): 0.799
Burkin Assay in Myotubes (signal relative to DMSO) ([2]; 0.5 uM): 0.9678
Burkin Assay in Myotubes (signal relative to DMSO) ([2]; 1 uM): 0.9526
Burkin Assay in Myotubes (signal relative to DMSO) ([2]; 5 uM): 1.213
Burkin Assay in Myotubes (signal relative to DMSO) ([2]; 10 uM): 0.997
Burkin Assay in Myotubes (signal relative to DMSO) ([2]; 20 uM): 0.8683
Burkin Assay in Myotubes (signal relative to DMSO) ([2]; 40 uM): 1.04
Burkin Assay in Myotubes, α7 integrin LacZ reporter signal relative to DMSO ([2]; 0.5 uM): 0.91
Burkin Assay in Myotubes, α7 integrin LacZ reporter signal relative to DMSO ([2]; 1 uM): 0.8188
Burkin Assay in Myotubes, α7 integrin LacZ reporter signal relative to DMSO ([2]; 5 uM): 1.086
Burkin Assay in Myotubes, α7 integrin LacZ reporter signal relative to DMSO ([2]; 10 uM): 1.246
Burkin Assay in Myotubes, α7 integrin LacZ reporter signal relative to DMSO ([2]; 20 uM): 0.8337
Burkin Assay in Myotubes, α7 integrin LacZ reporter signal relative to DMSO ([2]; 40 uM): 1.232
CMV-LACZ in Myoblasts (β-galactosidase activity relative to DMSO) ([3]; 0.5 uM): 0.7590
CMV-LACZ in Myoblasts (β-galactosidase activity relative to DMSO) ([3]; 1 uM): 1.0723
CMV-LACZ in Myoblasts (β-galactosidase activity relative to DMSO) ([3]; 5 uM): 0.8766
CMV-LACZ in Myoblasts (β-galactosidase activity relative to DMSO) ([3]; 10 uM): 1.0219
CMV-LACZ in Myoblasts (β-galactosidase activity relative to DMSO) ([3]; 20 uM): 1.1919
CMV-LACZ in Myoblasts (β-galactosidase activity relative to DMSO) ([3]; 40 uM): 0.7905
CMV-LACZ in Myotubes, signal relative to DMSO ([4]; 0.5 uM): 1.1038
CMV-LACZ in Myotubes, signal relative to DMSO ([4]; 1 uM): 1.1438
CMV-LACZ in Myotubes, signal relative to DMSO ([4]; 5 uM): 0.9525 and 0.8423
CMV-LACZ in Myotubes, signal relative to DMSO ([4]; 10 uM): 1.0297 and 1.045
CMV-LACZ in Myotubes, signal relative to DMSO ([4]; 20 uM): 0.9930 and 1.013
CMV-LACZ in Myotubes, signal relative to DMSO ([4]; 40 uM): 0.7740 and 1.236

COc1ccccc1C(=O)Nc1ccnn1C1CCN(C(=O)c2ccoc2)CC1 [MLS001083082-01]
Burkin Assay in Myoblasts, signal relative to DMSO ([1]; 0.5 uM): 0.9036
Burkin Assay in Myoblasts, signal relative to DMSO ([1]; 1 uM): 0.9516
Burkin Assay in Myoblasts, signal relative to DMSO ([1]; 5 uM): 1.058
Burkin Assay in Myoblasts, signal relative to DMSO ([1]; 10 uM): 1.023
Burkin Assay in Myoblasts, signal relative to DMSO ([1]; 20 uM): 1.014
Burkin Assay in Myoblasts, signal relative to DMSO ([1]; 40 uM): 0.9468
Burkin Assay in Myotubes, α7 integrin LacZ reporter signal relative to DMSO ([2]; 0.5 uM): 1.035
Burkin Assay in Myotubes, α7 integrin LacZ reporter signal relative to DMSO ([2]; 1 uM): 0.9411
Burkin Assay in Myotubes, α7 integrin LacZ reporter signal relative to DMSO ([2]; 5 uM): 1.07
Burkin Assay in Myotubes, α7 integrin LacZ reporter signal relative to DMSO ([2]; 10 uM): 1.05
Burkin Assay in Myotubes, α7 integrin LacZ reporter signal relative to DMSO ([2]; 20 uM): 0.8987
Burkin Assay in Myotubes, α7 integrin LacZ reporter signal relative to DMSO ([2]; 40 uM): 0.937
CMV-LACZ in Myoblasts (β-galactosidase activity relative to DMSO) ([3]; 0.5 uM): 0.8591
CMV-LACZ in Myoblasts (β-galactosidase activity relative to DMSO) ([3]; 1 uM): 0.9234
CMV-LACZ in Myoblasts (β-galactosidase activity relative to DMSO) ([3]; 5 uM): 1.0409
CMV-LACZ in Myoblasts (β-galactosidase activity relative to DMSO) ([3]; 10 uM): 1.1713
CMV-LACZ in Myoblasts (β-galactosidase activity relative to DMSO) ([3]; 20 uM): 0.9615
CMV-LACZ in Myoblasts (β-galactosidase activity relative to DMSO) ([3]; 40 uM): 0.8144
CMV-LACZ in Myotubes, signal relative to DMSO ([4]; 0.5 uM): 0.9615
CMV-LACZ in Myotubes, signal relative to DMSO ([4]; 1 uM): 1.0326
CMV-LACZ in Myotubes, signal relative to DMSO ([4]; 5 uM): 0.9984
CMV-LACZ in Myotubes, signal relative to DMSO ([4]; 10 uM): 0.9776
CMV-LACZ in Myotubes, signal relative to DMSO ([4]; 20 uM): 1.0282
CMV-LACZ in Myotubes, signal relative to DMSO ([4]; 40 uM): 1.1165

Cn1c(O)c(C(C#N)=C2N=c3ccccc3=N2)c2ccccc21 [MLS000536064-01]
Burkin Assay in Myoblasts, signal relative to DMSO ([1]; 0.5 uM): 0.8028
Burkin Assay in Myoblasts, signal relative to DMSO ([1]; 1 uM): 0.804
Burkin Assay in Myoblasts, signal relative to DMSO ([1]; 5 uM): 0.7333
Burkin Assay in Myoblasts, signal relative to DMSO ([1]; 10 uM): 1.047
Burkin Assay in Myoblasts, signal relative to DMSO ([1]; 20 uM): 0.544
Burkin Assay in Myoblasts, signal relative to DMSO ([1]; 40 uM): 0.4501
Burkin Assay in Myotubes, α7 integrin LacZ reporter signal relative to DMSO ([2]; 0.5 uM): 0.9046
Burkin Assay in Myotubes, α7 integrin LacZ reporter signal relative to DMSO ([2]; 1 uM): 0.9555
Burkin Assay in Myotubes, α7 integrin LacZ reporter signal relative to DMSO ([2]; 5 uM): 0.9539
Burkin Assay in Myotubes, α7 integrin LacZ reporter signal relative to DMSO ([2]; 10 uM): 1.131
Burkin Assay in Myotubes, α7 integrin LacZ reporter signal relative to DMSO ([2]; 20 uM): 0.7642
Burkin Assay in Myotubes, α7 integrin LacZ reporter signal relative to DMSO ([2]; 40 uM): 0.7073
CMV-LACZ in Myoblasts (β-galactosidase activity relative to DMSO) ([3]; 0.5 uM): 0.9105
CMV-LACZ in Myoblasts (β-galactosidase activity relative to DMSO) ([3]; 1 uM): 0.7412
CMV-LACZ in Myoblasts (β-galactosidase activity relative to DMSO) ([3]; 5 uM): 2.0402
CMV-LACZ in Myoblasts (β-galactosidase activity relative to DMSO) ([3]; 10 uM): 1.3388
CMV-LACZ in Myoblasts (β-galactosidase activity relative to DMSO) ([3]; 20 uM): 2.5396
CMV-LACZ in Myoblasts (β-galactosidase activity relative to DMSO) ([3]; 40 uM): 2.4896
CMV-LACZ in Myotubes, signal relative to DMSO ([4]; 0.5 uM): 0.9705
CMV-LACZ in Myotubes, signal relative to DMSO ([4]; 1 uM): 1.0389
CMV-LACZ in Myotubes, signal relative to DMSO ([4]; 5 uM): 0.8894
CMV-LACZ in Myotubes, signal relative to DMSO ([4]; 10 uM): 1.1027
CMV-LACZ in Myotubes, signal relative to DMSO ([4]; 20 uM): 1.2344
CMV-LACZ in Myotubes, signal relative to DMSO ([4]; 40 uM): 1.0233

CCCc1nnc(SCC(=O)NC2CCCC2)n1CCOC [MLS001217935-01]
Burkin Assay in Myoblasts, signal relative to DMSO ([1]; 0.5 uM): 1.162
Burkin Assay in Myoblasts, signal relative to DMSO ([1]; 1 uM): 1.076
Burkin Assay in Myoblasts, signal relative to DMSO ([1]; 5 uM): 0.9106
Burkin Assay in Myoblasts, signal relative to DMSO ([1]; 10 uM): 0.893
Burkin Assay in Myoblasts, signal relative to DMSO ([1]; 20 uM): 0.8002
Burkin Assay in Myoblasts, signal relative to DMSO ([1]; 40 uM): 0.587
Burkin Assay in Myotubes, α7 integrin LacZ reporter signal relative to DMSO ([2]; 0.5 uM): 0.9075
Burkin Assay in Myotubes, α7 integrin LacZ reporter signal relative to DMSO ([2]; 1 uM): 1.018
Burkin Assay in Myotubes, α7 integrin LacZ reporter signal relative to DMSO ([2]; 5 uM): 0.8812
Burkin Assay in Myotubes, α7 integrin LacZ reporter signal relative to DMSO ([2]; 10 uM): 1.081
Burkin Assay in Myotubes, α7 integrin LacZ reporter signal relative to DMSO ([2]; 20 uM): 0.7887
Burkin Assay in Myotubes, α7 integrin LacZ reporter signal relative to DMSO ([2]; 40 uM): 0.5246
CMV-LACZ in Myoblasts (β-galactosidase activity relative to DMSO) ([3]; 0.5 uM): 1.1729
CMV-LACZ in Myoblasts (β-galactosidase activity relative to DMSO) ([3]; 1 uM): 1.1167
CMV-LACZ in Myoblasts (β-galactosidase activity relative to DMSO) ([3]; 5 uM): 1.0175
CMV-LACZ in Myoblasts (β-galactosidase activity relative to DMSO) ([3]; 10 uM): 1.0465
CMV-LACZ in Myoblasts (β-galactosidase activity relative to DMSO) ([3]; 20 uM): 0.7859
CMV-LACZ in Myoblasts (β-galactosidase activity relative to DMSO) ([3]; 40 uM): 0.5381
CMV-LACZ in Myotubes, signal relative to DMSO ([4]; 0.5 uM): 0.9705
CMV-LACZ in Myotubes, signal relative to DMSO ([4]; 1 uM): 1.1381
CMV-LACZ in Myotubes, signal relative to DMSO ([4]; 5 uM): 1.1473
CMV-LACZ in Myotubes, signal relative to DMSO ([4]; 10 uM): 0.9648
CMV-LACZ in Myotubes, signal relative to DMSO ([4]; 20 uM): 1.0547
CMV-LACZ in Myotubes, signal relative to DMSO ([4]; 40 uM): 0.9495
